# Data from patent US12364667B2, “Anti-tumor platinum-based drug mineralized protein nanoparticle, preparation method therefor and use thereof” (SOOCHOW UNIVERSITY, priority 2019, dated 2025).
# Experiments:
# [1] = test system: HepG-2 cell line; test: MTT cytotoxicity on HepG-2 cell line; format: cell-based, human; details: 24 hours
# Experimental: Placing the plate in a cell incubator for 12 hours at constant temperature. […] After 24 hours in the incubator, replace the culture medium, add 10 μL of MTT (3-(4,5-dimethylthiazol-2-yl)-2,5-diphenyltetrazolium bromide) PBS (phosphate-buffered saline) solution with a concentration of 5 mg/mL, discard the culture medium after 4 hours, add 200 μL of DMSO (dimethylsulfoxide), shake for 10 minutes, measure the absorbance value at 490 nm with a microplate reader.
# [2] = test system: A549 tumor model; test: Anti-tumor effect, A549 subcutaneous tumor model; format: in vivo
# [3] = test system: A549/DDP tumor model; test: Anti-tumor effect, A549/DDP subcutaneous tumor model; format: in vivo, nude mice; details: platinum 1 mg/kg once every 5 days, 25 days
# [4] = Serum ALT, AST, ALP and urea nitrogen after treatment; format: in vivo, Balb/c mice; details: 7 days after complete injection; tail vein, once every 5 days, 5 administrations
# Experimental: 12. […] Each mouse was administered via the tail vein (1 mg/mL, once every 5 days). After a total of 5 administrations for 25 days, each mouse was taken by eyeball blood sampling at 7, 14, 21, and 28 days after administration. A 0.5 mL blood sample from a mouse was placed overnight at 4° C. and centrifuged at 1000 rpm for 5 min. The upper clarified serum 200 μL was taken out to measure the alanine aminotransferase (ALT), aspartate aminotransferase (AST), alkaline phosphatase (ALP) and urea nitrogen (Urea) contents.
compound,measurement,setting,value
N.N.[Cl][Pt][Cl] [cisplatin],IC50 for HepG-2 cell line,[1],12.6 µg/mL
same,effect on tumor growth,"[2]; A549 tumor model, platinum 1 mg/kg once every 5 days, 25 days",a certain tumor-inhibiting effect
same,condition of the nude mice during the observation period,"[2]; mouse, in vivo",in poor condition and lost weight
same,effect on tumor growth,[3],a certain tumor-inhibiting effect
same,serum urea nitrogen content versus control group,[4],significantly different from that of the control group
